Laboratory results: US4684647A, “Anti-bacterial pyrido-benzothiazine derivative and pharmaceutical composition therefor” (priority 1984, dated 1987)
Converted amounts (≈) assume the structure as drawn.

Key:
Pseudomonas aeruginosa = test: MIC in agar, Pseudomonas aeruginosa; type: cell-based; details: Isosensitest agar, 10^4 CFU, 24 h, 37° C., read-out: MIC, B = Pseudomonas aeruginosa
Procedure: (§1) The antibacterial activity (minimum inhibiting concentration, MIC) of the compounds according to the invention has been determined in agar, by adding the compound under evaluation at concentrations of from 0.1 to 100 meg/ml by means of a "multipoint inoculator" (Denley Techn. Ltd., England); the medium used was Isosensitest agar (Oxoid); the bacterial inoculate was 10^4 colony forming unity (CFU) per inoculation point. The reading of the results was done after 24 hour-incubation in thermostat at 37° C.
(§2) The MIC was defined as the lowest concentration of chemotherapeutic agent still capable of totally inhibiting the growth of bacteria, as detected from a lack of colony development in the inoculation point.
(§3) The microorganisms used for evaluating the activity of the specific compounds have been: Escherichia coli, Klebsiella P., Enterobacter, Serratia, Citrobacter, Proteus (+), Salmonella, Pseudomonas, Staphylococcus. All the compounds according to the present invention are provided with antibacterial activity against one or more microorganism(s) among those above mentioned. Some of such compounds are absorbed after having been administered orally to the animals, and are particularly useful as disinfectants of the urinary tract in that they are excreted in a high percentage (50-70% over 24 hours after the administration of 50 mg/kg per os) as such, and in metabolic active form, through the urine.
B = P udomonas aeruginosa

[1] = tissue levels by HPLC after oral administration to rats; type: in vivo; details: rat; for concentration at 0.5 h / concentration at 1 h / concentration at 2 h / concentration at 4 h / concentration at 8 h / concentration at 15 h: 50 mg/kg oral; for Cmax: po
Escherichia coli (981) = test: MIC in agar, Escherichia coli (981); type: cell-based; details: Isosensitest agar, 10^4 CFU, 24 h, 37° C.
Procedure: as §1, §2, §3
A = Escherichia coli (981)

[2] = plasma levels by HPLC after intraperitoneal and oral administration to rats; type: in vivo; details: rat; for concentration at 0.5 h: 0.50 h; for concentration at 0.5 h / concentration at 1 h / concentration at 2 h / concentration at 4 h / concentration at 8 h / concentration at 15 h: read-out: Plasma level
Procedure: We give hereinafter in Table 2 the haematic levels of compound (h) as measured in plasma by HPLC. Each value is the average of three tested rats.
More precisely in FIG. 1 the plasma levels in rats versus the time, are reported, after i.p. administration of 10 mg/kg and 25 mg/kg of compound (h), while in FIG. 2 the plasma levels are reported of compound (h) in rats, versus the time, after oral administration of 25, 50 and 100 mg/kg of said compound.

in vivo = details: rat, po
Procedure: In Table 4 the percentage of urinary excretion of compound (h) is reported, as measured in the 24 hours successive to oral administration of the same to rats.
Each value is the average of three tested rats.
The tests have been performed in comparison with Ofloxacin, a well known antibacterial compound. The amount of excreted product has been determined with microbiological analysis, by using Klebsiella Pneumoniae as the testing microorganism.

bacteria [3] = test: antibacterial characteristics tested in vivo
[4] = tested on: Proteus Morgani (indole +); test: MIC in agar, Proteus Morgani (indole +); type: cell-based; details: Isosensitest agar, 10^4 CFU, 24 h, 37° C.; read-out: MIC, D = Proteus Morgani (indole +)
Procedure: as §1, §2, §3
D = Proteus Morgani (indole +)

Klebsiella pneumoniae = test: MIC in agar, Klebsiella pneumoniae; type: cell-based; details: Isosensitest agar, 10^4 CFU, 24 h, 37° C., read-out: MIC, E = Klebsiella pneumoniae
Procedure: as §1, §2, §3
E = Klebsiella pneumoniae

Citrobacter = test: MIC in agar, Citrobacter; type: cell-based; details: Isosensitest agar, 10^4 CFU, 24 h, 37° C., read-out: MIC, G = Citrobacter
Procedure: as §1, §2, §3

bacteria [5] = test: antibacterial activity in vitro, overall; type: cell-based; details: in vitro, Table 1
Procedure: as §1, §2, §3

Staphylococcus aureus = test: MIC in agar, Staphylococcus aureus; type: cell-based; details: Isosensitest agar, 10^4 CFU, 24 h, 37° C.
Procedure: as §1, §2, §3

[6] = preliminary pharmacokinetic tests in dogs, oral; type: in vivo; details: dog, 20 mg/kg per os
Text: Preliminary tests performed in dogs with the compound (h) have given still better results than the tests performed in rats.

Enterobacter = test: MIC in agar, Enterobacter; type: cell-based; details: Isosensitest agar, 10^4 CFU, 24 h, 37° C., read-out: MIC, F = Enterobacter
Procedure: as §1, §2, §3

[7] = heart, read-out: Tissue level, heart
[8] = kidney, read-out: Tissue level, kidney
[9] = liver, read-out: Tissue level, liver
[10] = plasma, read-out: Tissue levels table, plasma

For `CN1CCN(c2c(F)cc3c(=O)c(C(=O)O)cn4c3c2SCC4)CC1` [Compound (h), 9-Fluoro-10[N-(4'-methyl)-piperazinyl]-7-oxo-2,3-dihydro-7H-pyrido[1,2,3 de][1,4]benzothiazine-6-carboxylic acid], the MIC (Pseudomonas aeruginosa) was greater than 50 mg/L, the concentration at 0.5 h [1, 7] was 20 µg/mL and the concentration at 1 h [1, 7] was 31.4 µg/mL. The concentration at 2 h [1, 7] was 21 µg/mL, the concentration at 4 h [1, 7] was 18.1 µg/mL and the concentration at 8 h [1, 7] was 9.93 µg/mL. It also gave a concentration at 15 h [1, 7] of 5.35 µg/mL, a concentration at 0.5 h [1, 8] of 32.6 µg/mL and a concentration at 1 h [1, 8] of 61.2 µg/mL. For the same compound, the concentration at 2 h [1, 8] was 50.6 µg/mL, the concentration at 4 h [1, 8] was 42.4 µg/mL and the concentration at 8 h [1, 8] was 17.8 µg/mL. It also gave a concentration at 15 h [1, 8] of 7.95 µg/mL, a concentration at 0.5 h [1, 9] of 63.5 µg/mL and a concentration at 1 h [1, 9] of 80.4 µg/mL. It also gave a concentration at 2 h [1, 9] of 58.1 µg/mL, a concentration at 4 h [1, 9] of 34.1 µg/mL and a concentration at 8 h [1, 9] of 21.6 µg/mL. It also gave a concentration at 15 h [1, 9] of 11.3 µg/mL, a concentration at 0.5 h [1, 10] of 8.75 µg/mL and a concentration at 1 h [1, 10] of 10.1 µg/mL. The concentration at 2 h [1, 10] was 9.95 µg/mL, the concentration at 4 h [1, 10] was 6.37 µg/mL and the concentration at 8 h [1, 10] was 4.95 µg/mL. For the same compound, the concentration at 15 h [1, 10] was 4.29 µg/mL, the Cmax ([1]; heart, read-out: mean tissue level at the moment of peak, heart) was 31.4 µg/mL and the Cmax ([1]; liver, read-out: mean tissue level at the moment of peak, liver (first of two values printed for liver)) was 61.2 µg/mL. For the same compound, the Cmax ([1]; liver, read-out: mean tissue level at the moment of peak, liver (second of two values printed for liver)) was 80.4 µg/mL, the presence in brain ([1]; oral) was “No presence” and the Kp ([1]; oral, various organs, read-out: ratio of organ concentration with respect to the concentration in plasma) was greater than 3. It also gave a Cmax ([1]; plasma, read-out: mean level at the moment of peak, plasma) of 10.1 µg/mL, an MIC (Escherichia coli (981)) of 0.78 mg/L (≈ 2.15 µM) and a concentration at 0.5 h ([2]; plasma, ip, 10 mg/kg i.p.) of 2.7 µg/mL. For the same compound, the concentration at 1 h ([2]; plasma, ip, 10 mg/kg i.p.) was 2.53 µg/mL, the concentration at 2 h ([2]; plasma, ip, 10 mg/kg i.p.) was 2.17 µg/mL and the concentration at 4 h ([2]; plasma, ip, 10 mg/kg i.p.) was 1.83 µg/mL. The concentration at 8 h ([2]; plasma, ip, 10 mg/kg i.p.) was 1.63 µg/mL, the concentration at 0.5 h ([2]; plasma, ip, 25 mg/kg i.p.) was 8.35 µg/mL and the concentration at 1 h ([2]; plasma, ip, 25 mg/kg i.p.) was 6.29 µg/mL. The concentration at 2 h ([2]; plasma, ip, 25 mg/kg i.p.) was 6.44 µg/mL, the concentration at 4 h ([2]; plasma, ip, 25 mg/kg i.p.) was 5.01 µg/mL and the concentration at 8 h ([2]; plasma, ip, 25 mg/kg i.p.) was 3.72 µg/mL. For the same compound, the concentration at 0.5 h ([2]; plasma, po, 25 mg/kg os) was 5.33 µg/mL, the concentration at 1 h ([2]; plasma, po, 25 mg/kg os) was 7.3 µg/mL and the concentration at 2 h ([2]; plasma, po, 25 mg/kg os) was 5.67 µg/mL. It also gave a concentration at 4 h ([2]; plasma, po, 25 mg/kg os) of 3.6 µg/mL, a concentration at 8 h ([2]; plasma, po, 25 mg/kg os) of 3.27 µg/mL and a concentration at 15 h ([2]; plasma, po, 25 mg/kg os) of 2.73 µg/mL. It also gave a concentration at 0.5 h ([2]; plasma, po, 50 mg/kg os) of 8.75 µg/mL, a concentration at 1 h ([2]; plasma, po, 50 mg/kg os) of 10.1 µg/mL and a concentration at 2 h ([2]; plasma, po, 50 mg/kg os) of 9.95 µg/mL. For the same compound, the concentration at 4 h ([2]; plasma, po, 50 mg/kg os) was 6.37 µg/mL, the concentration at 8 h ([2]; plasma, po, 50 mg/kg os) was 4.95 µg/mL and the concentration at 15 h ([2]; plasma, po, 50 mg/kg os) was 4.29 µg/mL. For the same compound, the concentration at 0.5 h ([2]; plasma, po, 100 mg/kg os) was 12.5 µg/mL, the concentration at 1 h ([2]; plasma, po, 100 mg/kg os) was 20.6 µg/mL and the concentration at 2 h ([2]; plasma, po, 100 mg/kg os) was 22.2 µg/mL. It also gave a concentration at 4 h ([2]; plasma, po, 100 mg/kg os) of 15.9 µg/mL, a concentration at 8 h ([2]; plasma, po, 100 mg/kg os) of 13 µg/mL and a concentration at 15 h ([2]; plasma, po, 100 mg/kg os) of 6.22 µg/mL. The half-life ([2]; plasma, deduced from Table 2, read-out: half-life time (converted)) was 10 h, the “absorption per os and i.p.” value [2] was “quickly absorbed” and the “plasma levels induced” value [2] was “high and long-lasting levels both in the plasma and in the various organs”. For the same compound, the dose excreted at 24 h (in vivo; 20 mg/kg) was 77.3 ± 6.81%, the dose excreted at 24 h (in vivo; 50 mg/kg) was 73 ± 4.58% and the “in vivo antibacterial characteristics” value (bacteria [3]) was “systemic antibacterial compound having long-lasting activity”. It also gave an MIC [4] of 1.56 mg/L (≈ 4.29 µM), an MIC (Klebsiella pneumoniae) of less than 0.39 mg/L and an MIC (Citrobacter) of 1.56 mg/L (≈ 4.29 µM). For the same compound, the “anti-bacterial activity in vitro” value (bacteria [5]) was “very good and comparable anti-bacterial activity”, the MIC (Staphylococcus aureus) was 0.78 mg/L (≈ 2.15 µM) and the “plasma levels compared with rats” value [6] was “sharply higher plasma levels”. For the same compound, the half-life ([6]; plasma, po) was 24 h, the Cmax ([6]; plasma, po, read-out: peak plasma level) was 8 µg/mL and the MIC (Enterobacter) was less than 0.39 mg/L.
